PMC12251482, “Floridoside Phosphotriester Derivatives: Synthesis and Inhibition of Human Neutrophils’ Oxidative Burst” (Molecules, 2025)

Legend:
[1] = test system: PMA-stimulated human neutrophils; assay: HOCl generation by PMA-stimulated neutrophils, oxidation of APF; assay type: cell-based; settings: PMA 160 nM, mean ± SEM
Description: APF is a non-fluorescent derivative of fluorescein, which is oxidized by HOCl, ONOO^−, and HO^• [87], in a concentration-dependent manner. Its selectivity was tested using the myeloperoxidase (MPO) inhibitor, 4-aminobenzoic acid hydrazide (ABAH). The addition of ABAH to human neutrophils, stimulated with PMA, decreased the APF-dependent fluorescence signal to the level of the control assay, ruling out the involvement of HO^• and ONOO^− [88]. The previously established methodology for monitoring oxidative burst modulation was adapted. In a 96-well plate, neutrophils (2 × 10^6 cells/mL) were incubated in the dark at 37 °C for 5 min with APF (2 μM) and the tested compounds (10–100 μM) or DMSO (4%). Quercetin (0.3–5.0 μM) and DPI (0.01–10 μM) were used as controls. After incubation, PMA (160 nM) was added, and the fluorescence (excitation at 495 nm and emission at 528 nm) was measured in a microplate reader (Synergy HT, BIO-TEK Instruments, Inc., Winooski, VT, USA). Kinetic readings were initiated immediately after the addition of APF. Obtained values correspond to the slope measured between 5 and 15 min. Effects are expressed as the percentage inhibition of APF oxidation. The results obtained represent at least three independent experiments.
APF is a non-ﬂuorescent derivative of ﬂuorescein, which is oxidized by HOCl, [20] ONOO-, and HO• [21] in a concentration- dependent manner. Its selectivity was tested using the myeloperoxidase (MPO) inhibitor, 4-aminobenzoic acid hydrazide (ABAH). The addition of ABAH to human neutrophils, stimulated with PMA, decreased the APF-dependent ﬂuorescence signal to the level of the control assay, ruling out the involvement of HO• and ONOO− [22]. The previously established methodology for monitoring oxidative burst modulation was adapted. In a 96-well plate, neutrophils (2 x 10^6 cells/mL) were incubated in the dark at 37 °C for 5 minutes with APF (2 µM) and the tested compounds (10 - 100 µM) or DMSO (4%). Quercetin (0.3 - 5.0 µM) and DPI (0.01 - 10 µM) were used as positive and negative controls, respectively. After incubation, PMA (160 nM) was added, and the ﬂuorescence (excitation at 495 nm and emission at 528 nm) was measured in a microplate reader (Synergy HT, BIO-TEK Instruments, Inc., Winooski, VT, USA). Kinetic readings were initiated immediately after the addition of APF. Obtained values correspond to the slope measured between 5 and 15 minutes. Eﬀects are expressed as the percentage inhibition of APF oxidation. The obtained results represent at least three independent experiments. […]
GraphPad Prism 6 software was used to plot the inhibition percentage versus compound concentration curves, enabling the determination of the concentration required to achieve 50% inhibition (IC50). GraphPad Prism 6 software was also used to perform all statistical analyses.
[…] was estimated by applying the one-way analysis (ANOVA), followed by the Bonferroni’s multiple comparisons test. In all cases, p-values < 0.05 were considered statistically signiﬁcant. The results are expressed as mean ± standard error of the mean (SEM).

human neutrophils = assay: Neutrophils' apoptosis versus necrosis, Annexin V/PI flow cytometry; assay type: cell-based; settings: for Cytotoxicity in neutrophils: 45 min; for Induction of late apoptosis in neutrophils: Figure S154
Description: (§1) The effect of the compounds under study on neutrophil viability was evaluated using flow cytometry. This assessment involved staining with Annexin V (AV) and propidium iodide (PI) from the BD Pharmingen™ FITC Annexin V Apoptosis Detection Kit, following the manufacturer’s protocol. […] Afterwards, the content of each well was transferred to a conical microtube and centrifuged at 400× g, at 20 °C, for 5 min. The neutrophils’ pellets were resuspended in PBS and centrifuged again under the previous conditions. The supernatant was removed, and the solution of Annexin V and PI from the kit was added, resuspending the pellet. The neutrophils were incubated in the dark at room temperature for 15 min and then diluted (dilution factor = 6) with the diluted binding buffer. […] In the flow cytometer, the fluorescence signal of at least 10,000 neutrophils per sample was collected in logarithmic mode and followed in channels 1 and 3. A polygon gate, corresponding to the neutrophil’s population, was drawn according to the light-scattering properties of neutrophils in a forward versus scatter plot. Thus, debris and other blood cells were unaccounted for in the samples. The green fluorescence corresponding to Annexin V was monitored in channel 1 and plotted as a histogram of FL1 staining, whereas the fluorescence corresponding to PI was monitored in channel 3 and plotted in the same histogram as FL3 staining. Neutrophils’ cell death was expressed as a relative percentage of viable, apoptotic, late apoptotic, and necrotic cells compared to a negative control (untreated cells).
(§2) The eﬀect of the compounds under study on neutrophil viability was evaluated using ﬂow cytometry.
(§3) This assessment involved staining with Annexin V (AV) and propidium iodide (PI) from the BD Pharmingen™ FITC Annexin V Apoptosis Detection Kit, following the manufacturer's protocol. Neutrophils (1 x10^6 cells/mL) were incubated in a 24-well plate in the dark at 37 °C for 45 minutes with the positive control (Triton X-100, […]
(§4) Afterwards, the content of each well was transferred to a conical microtube and centrifuged at 400g, at 20 °C, for 5 minutes. The neutrophils’ pellets were resuspended in PBS and centrifuged again under the previous conditions. The supernatant was removed, and the solution of Annexin V and PI from the kit was added, resuspending the pellet. The neutrophils were incubated in the dark at room temperature for 15 minutes and then diluted (dilution factor = 6) with the diluted binding buﬀer. The measurements were performed in a n Accuri C6 ﬂow cytometer (BD, Becton, Dickinson and Company, Franklin Lakes, NJ, USA), and the results were treated with BD Accuri™ C6 software. In the ﬂow cytometer, the ﬂuorescence signal of at least 10,000 neutrophils per sample was collected in logarithmic mode and followed in channels 1 and 3. A polygon gate, corresponding to the neutrophil’s population, was drawn according to the light-scattering properties of neutrophils in a forward vs scatter plot. Thus, debris and other blood cells were unaccounted for in the samples.
(§5) The green ﬂuorescence corresponding to Annexin V was monitored in channel 1 and plotted as a histogram of FL1 staining, whereas the ﬂuorescence corresponding to PI was monitored in channel 3 and plotted in the same histogram as FL3 staining. Neutrophils’ cell death was expressed as a relative percentage of viable, apoptotic, late apoptotic, and necrotic cells compared to a negative control (untreated cells). […]

[2] = as above; assay type: cell-based, human; settings: human; 50 μM; representative plot, Figure 2; read-out: Q2-LL, viable cells (AV−/PI−)
Description: as §1, §2, §3, §4, §5

[3] = tested concentrations, up to 100 μM

| Compound | APF: highest obtained % of inhibition ([1]; at 50 µM) [% ^50µM] | Cytotoxicity in neutrophils (human neutrophils; 50 μM) | Cytotoxicity in neutrophils (human neutrophils; [3]) | APF: highest obtained % of inhibition ([1]; at 25 µM) [% ^25µM] | Cytotoxicity in neutrophils (human neutrophils; 25 μM) | Induction of late apoptosis in neutrophils (human neutrophils; 50 μM) | inhibition at 50 µM ([1]; Homo sapiens, Neutrophil, at 50 µM, read-out: APF: highest obtained % of inhibition) [%] | inhibition at 25 µM ([1]; Homo sapiens, Neutrophil, at 25 µM, read-out: APF: highest obtained % of inhibition) [%] | viability at 45 min, 50 µM [2] [%] |
| --- | --- | --- | --- | --- | --- | --- | --- | --- | --- |
| 3-Hydroxy-2-(galactopyranosyl)propyl dodecanoate [Compound 1e] | <20 | no cytotoxicity | non-cytotoxic |  |  |  |  |  |  |
| 3-Hydroxy-2-galactopyranosylpropyl dioctyl phosphate [Compound 1b] |  | cytotoxic effects |  | 29 ± 10 | did not exhibit significant cytotoxicity | induce late apoptosis |  |  |  |
| OCC(CO)OC1OC(CO)C(O)C(O)C1O [Compound 1a, 2-O-D-(galactopyranosyl)glycerol] |  |  | no cytotoxic activity |  |  |  | 27 ± 6 |  |  |
| CCCCCCCCCCCC(=O)OCC(CO)OC1OC(COP(=O)(OCCN)OCCN)C(O)C(O)C1O (centres unmarked) [Compound 1h, 2-(6-(bis(2-Aminoethoxy))phosphoryl)galactopyranosyl-3-hydroxypropyl dodecanoate] |  | cytotoxic effects |  |  | did not exhibit significant cytotoxicity | induce late apoptosis |  | < 20 | 53 |
